Where “and” joins values, the source holds several entries; their conditions need not be identical. Equal values may be shown once.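 1) Cells in 96-well plates. 2) Compound, 48 h, 5 concentrations. 3) Linear interpolation between surrounding doses. 4) Unreached endpoint = highest concentration. GI50 marks 50% less growth. TGI: total growth inhibition.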
How the values were obtained:
Test in all cases: NCI tumour cell line growth inhibition, 48 h
DLD-1 colon = system: DLD-1 colon
DMS 114 small cell lung = system: DMS 114 small cell lung
DMS 273 small cell lung = system: DMS 273 small cell lung
LXFL 529 NSCLC = system: LXFL 529 NSCLC
M19-MEL melanoma = system: M19-MEL melanoma
SNB-78 CNS = system: SNB-78 CNS
P388 leukemia = system: P388 leukemia
P388/ADR leukemia = system: P388/ADR leukemia
SN12K1 renal = system: SN12K1 renal
XF 498 CNS = system: XF 498 CNS
RXF-631 renal = system: RXF-631 renal

| SMILES | TGI (DLD-1 colon) | TGI (DMS 114 small cell lung) [µM] | TGI (DMS 273 small cell lung) | TGI (LXFL 529 NSCLC) [µM] | TGI (M19-MEL melanoma) | TGI (SNB-78 CNS) | GI50 (DMS 273 small cell lung) [µM] | TGI (P388 leukemia) | GI50 (P388/ADR leukemia) [µM] | TGI (P388/ADR leukemia) | GI50 (SN12K1 renal) [µM] | TGI (SN12K1 renal) | GI50 (SNB-78 CNS) | GI50 (XF 498 CNS) [µM] | TGI (XF 498 CNS) | TGI (RXF-631 renal) [µM] | GI50 (P388 leukemia) |
| --- | --- | --- | --- | --- | --- | --- | --- | --- | --- | --- | --- | --- | --- | --- | --- | --- | --- |
| Cc1c2cc[n+](C)cc2c(C)c2c1[nH]c1ccc(OCC(F)(F)F)cc12 | > 100 µM | > 21.6 | > 31.7 µM and 30.9 µM | 6.5 | > 24.5 µM | > 100 µM |  |  |  |  |  |  |  |  |  |  |  |
| CC(C)=CC(=O)OC1C2C(C)=CC(=O)C(O)C2(C)C2C3(O)OCC24C(CC(=O)OC14)C(C)C3O (configuration not stated) | 0.221 µM and 0.554 µM |  | 0.0122 µM and 0.0241 µM |  | 0.0252 µM and 0.027 µM | 0.36 µM and 0.153 µM | 0.02 | 0.00568 µM | 0.181 | 0.575 µM and 0.84 µM | 0.00412 | 0.0169 µM and 0.0213 µM | 0.0575 µM | 0.00543 | 0.0217 µM and 0.0556 µM |  |  |
| O=Cn1c2ccccc2c2ccccc21 | > 100 µM | > 100 | > 100 µM | > 100 | > 100 µM | > 100 µM |  |  |  |  |  |  |  |  | > 100 µM |  |  |
| COC(=O)c1c(CC(=O)OC(C)C)cc2n(c1=O)Cc1c-2nc2ccccc2c1OC | > 100 µM | > 100 | > 100 µM | > 100 | > 100 µM |  |  |  |  |  |  |  |  |  | > 100 µM |  |  |
| NCCCNCCSP(=O)(O)O | > 750 µM | > 750 | > 750 µM |  | > 750 µM | > 750 µM |  | > 750 µM |  | > 750 µM |  | > 750 µM |  |  | > 422 µM |  |  |
| CN1COCN=C1NC#N | > 100 µM | > 100 |  | > 100 | > 100 µM | > 100 µM |  |  |  |  |  |  |  |  | > 100 µM | > 100 |  |
| N/C(=N\N=C/c1c(O)cc(O)cc1O)NO | > 100 µM | > 100 | > 31.6 µM |  | > 100 µM | > 100 µM |  | > 100 µM |  | > 100 µM |  | > 100 µM |  |  |  |  |  |
| CSCSCC(CO)NC(=O)/C=C\c1c(C)[nH]c(=O)[nH]c1=O (configuration not stated) | 160 µM | 66.5 | 267 µM |  | 111 µM | 260 µM |  | 164 µM |  | 332 µM |  | 84.9 µM | 30.9 µM |  | 9.99 µM |  |  |
| Cc1ccc(N2Cc3c(ccc4ccccc34)OP2(=S)N2CCCC2)cc1 (configuration not stated) | > 100 µM |  | > 100 µM |  | > 100 µM | > 100 µM |  | 47.9 µM |  | > 100 µM |  | > 100 µM |  |  | > 100 µM |  |  |
| CN1Cc2ccccc2C2(COc3ccccc3C2=O)C1 (configuration not stated) | > 100 µM | > 100 | > 100 µM | > 100 | > 100 µM | > 100 µM |  |  |  |  |  |  |  |  |  |  |  |
| CCN(CC)CC[n+]1ccc2c(C)c3[nH]c4ccccc4c3c(C)c2c1 | 13.5 µM and 14.6 µM |  | 1.53 µM and 1.74 µM |  | 0.762 µM and 2 µM | 1.49 µM and 7.14 µM |  | 1.41 µM and 4.27 µM |  | > 100 µM and 125 µM | 0.268 | 1.18 µM and 1.8 µM | 0.293 µM and 1.17 µM |  |  |  | 0.0448 µM and 0.024 µM |
| C/C(N=NS(=O)(=O)c1c(C)cc(C)cc1C)=C1\C=CC=CN1O | > 100 µM | > 100 | > 100 µM | > 100 | > 100 µM | > 100 µM |  |  |  |  |  |  |  |  | > 100 µM |  |  |
